From article PMC5003625 (Journal of medicinal chemistry, 2016)

Experiments:
EZH2 = conditions: cited from earlier work; for selectivity for EZH2 over EZH1: reported inhibitors
[1] = biological target: EZH1 pentameric complex (EZH1:EED:SUZ12:RBBP4:AEBP2) (Homo sapiens, UniProt Q92800); assay: Methyltransferase activity assay; assay type: biochemical
[2] = biological target: EZH2 trimeric complex (EZH2:EED:SUZ12) (Homo sapiens, UniProt Q15910); assay: Methyltransferase activity assay; assay type: biochemical; conditions: for fold loss of potency for EZH2: relative to the parent compound of the sentence (5, 24 or 53)
EZH2 trimeric complex (EZH2:EED:SUZ12), sequence (Q15910 whole entry): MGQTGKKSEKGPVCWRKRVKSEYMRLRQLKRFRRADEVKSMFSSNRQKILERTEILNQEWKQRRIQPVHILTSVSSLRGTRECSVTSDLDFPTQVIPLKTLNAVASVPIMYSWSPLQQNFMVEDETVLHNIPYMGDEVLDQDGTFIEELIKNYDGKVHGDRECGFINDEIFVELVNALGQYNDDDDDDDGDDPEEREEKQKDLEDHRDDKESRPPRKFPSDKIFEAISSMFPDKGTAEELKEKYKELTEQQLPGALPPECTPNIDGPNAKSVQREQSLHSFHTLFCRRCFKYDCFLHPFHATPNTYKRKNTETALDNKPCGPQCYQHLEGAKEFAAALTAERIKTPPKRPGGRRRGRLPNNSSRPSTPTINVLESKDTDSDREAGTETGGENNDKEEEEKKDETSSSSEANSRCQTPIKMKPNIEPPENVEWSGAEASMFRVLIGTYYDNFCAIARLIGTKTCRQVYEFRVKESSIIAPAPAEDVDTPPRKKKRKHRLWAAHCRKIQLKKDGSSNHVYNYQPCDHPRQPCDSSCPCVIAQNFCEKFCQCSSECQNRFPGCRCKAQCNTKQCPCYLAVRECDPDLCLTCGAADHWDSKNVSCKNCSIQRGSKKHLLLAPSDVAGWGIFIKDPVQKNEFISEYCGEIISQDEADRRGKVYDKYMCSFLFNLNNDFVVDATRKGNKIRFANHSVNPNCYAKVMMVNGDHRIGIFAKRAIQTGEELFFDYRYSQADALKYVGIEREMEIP
EZH2 trimeric complex (EZH2:EED:SUZ12), sequence (O75530 whole entry partner): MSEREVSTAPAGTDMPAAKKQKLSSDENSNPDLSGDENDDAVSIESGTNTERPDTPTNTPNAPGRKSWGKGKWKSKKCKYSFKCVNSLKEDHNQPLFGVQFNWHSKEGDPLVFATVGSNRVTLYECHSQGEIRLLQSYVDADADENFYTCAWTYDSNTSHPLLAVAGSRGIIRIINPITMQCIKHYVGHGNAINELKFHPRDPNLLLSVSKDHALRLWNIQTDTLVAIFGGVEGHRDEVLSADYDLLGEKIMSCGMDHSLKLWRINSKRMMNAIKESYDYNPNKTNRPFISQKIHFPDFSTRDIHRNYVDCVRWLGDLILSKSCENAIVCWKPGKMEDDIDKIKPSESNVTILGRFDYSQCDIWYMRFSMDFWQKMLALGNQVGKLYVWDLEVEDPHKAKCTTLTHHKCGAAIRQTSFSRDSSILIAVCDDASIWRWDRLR
EZH2 trimeric complex (EZH2:EED:SUZ12), sequence (Q15022 whole entry partner): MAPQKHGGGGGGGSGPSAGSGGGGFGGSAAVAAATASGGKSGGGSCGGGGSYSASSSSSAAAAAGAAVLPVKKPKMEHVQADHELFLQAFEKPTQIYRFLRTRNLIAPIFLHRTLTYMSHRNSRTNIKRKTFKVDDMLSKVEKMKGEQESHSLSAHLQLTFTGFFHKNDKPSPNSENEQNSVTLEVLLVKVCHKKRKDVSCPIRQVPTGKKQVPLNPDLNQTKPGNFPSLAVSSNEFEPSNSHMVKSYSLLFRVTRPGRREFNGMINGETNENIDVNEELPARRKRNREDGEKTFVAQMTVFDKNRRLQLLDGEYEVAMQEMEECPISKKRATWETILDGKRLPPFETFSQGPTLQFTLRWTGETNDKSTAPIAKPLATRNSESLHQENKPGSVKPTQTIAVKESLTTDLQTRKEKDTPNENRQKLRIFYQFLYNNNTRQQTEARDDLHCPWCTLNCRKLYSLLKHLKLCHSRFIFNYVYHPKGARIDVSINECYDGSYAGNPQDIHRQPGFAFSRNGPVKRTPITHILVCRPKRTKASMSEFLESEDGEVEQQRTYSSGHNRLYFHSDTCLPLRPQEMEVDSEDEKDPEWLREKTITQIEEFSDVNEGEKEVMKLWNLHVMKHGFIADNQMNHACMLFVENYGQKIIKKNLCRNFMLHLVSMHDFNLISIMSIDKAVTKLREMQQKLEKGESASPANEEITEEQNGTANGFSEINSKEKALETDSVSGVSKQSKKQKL

EZH1 pentameric complex (EZH1:EED:SUZ12:RBBP4:AEBP2), sequence (Q92800 whole entry): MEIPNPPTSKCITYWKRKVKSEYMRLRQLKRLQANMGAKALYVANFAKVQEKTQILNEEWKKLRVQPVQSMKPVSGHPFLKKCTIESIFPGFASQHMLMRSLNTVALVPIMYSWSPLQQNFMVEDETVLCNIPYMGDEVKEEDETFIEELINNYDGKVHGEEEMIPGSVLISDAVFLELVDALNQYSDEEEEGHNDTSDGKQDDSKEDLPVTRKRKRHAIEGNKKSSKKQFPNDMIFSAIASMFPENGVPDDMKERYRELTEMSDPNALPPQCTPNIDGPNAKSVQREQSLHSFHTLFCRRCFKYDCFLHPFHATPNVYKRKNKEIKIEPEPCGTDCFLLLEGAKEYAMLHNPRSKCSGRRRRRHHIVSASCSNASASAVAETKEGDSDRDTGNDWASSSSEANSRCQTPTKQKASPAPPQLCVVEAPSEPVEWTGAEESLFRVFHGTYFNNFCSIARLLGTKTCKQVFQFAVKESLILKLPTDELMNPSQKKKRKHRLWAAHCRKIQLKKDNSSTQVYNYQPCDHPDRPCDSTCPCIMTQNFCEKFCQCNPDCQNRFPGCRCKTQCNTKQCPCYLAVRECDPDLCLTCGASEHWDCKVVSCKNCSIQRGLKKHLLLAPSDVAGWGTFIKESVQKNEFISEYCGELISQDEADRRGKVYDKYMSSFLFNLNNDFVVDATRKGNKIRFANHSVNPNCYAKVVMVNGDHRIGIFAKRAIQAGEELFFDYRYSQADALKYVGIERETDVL
EZH1 pentameric complex (EZH1:EED:SUZ12:RBBP4:AEBP2), sequence (O75530 whole entry partner): as the sequence (O75530 whole entry partner) above
EZH1 pentameric complex (EZH1:EED:SUZ12:RBBP4:AEBP2), sequence (Q15022 whole entry partner): as the sequence (Q15022 whole entry partner) above
EZH1 pentameric complex (EZH1:EED:SUZ12:RBBP4:AEBP2), sequence (Q09028 whole entry partner): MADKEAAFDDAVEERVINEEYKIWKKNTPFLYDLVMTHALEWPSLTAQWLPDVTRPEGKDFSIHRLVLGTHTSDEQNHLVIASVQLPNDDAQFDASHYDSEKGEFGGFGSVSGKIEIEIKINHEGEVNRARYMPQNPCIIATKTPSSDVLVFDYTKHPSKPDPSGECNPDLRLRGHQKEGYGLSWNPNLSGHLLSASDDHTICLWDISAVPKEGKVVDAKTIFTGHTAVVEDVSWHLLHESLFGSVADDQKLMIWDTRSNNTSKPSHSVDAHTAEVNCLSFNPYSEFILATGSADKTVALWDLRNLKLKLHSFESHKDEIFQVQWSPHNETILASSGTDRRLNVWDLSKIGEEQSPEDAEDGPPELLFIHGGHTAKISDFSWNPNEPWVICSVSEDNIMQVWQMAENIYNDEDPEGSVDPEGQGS
EZH1 pentameric complex (EZH1:EED:SUZ12:RBBP4:AEBP2), sequence (Q6ZN18 whole entry partner): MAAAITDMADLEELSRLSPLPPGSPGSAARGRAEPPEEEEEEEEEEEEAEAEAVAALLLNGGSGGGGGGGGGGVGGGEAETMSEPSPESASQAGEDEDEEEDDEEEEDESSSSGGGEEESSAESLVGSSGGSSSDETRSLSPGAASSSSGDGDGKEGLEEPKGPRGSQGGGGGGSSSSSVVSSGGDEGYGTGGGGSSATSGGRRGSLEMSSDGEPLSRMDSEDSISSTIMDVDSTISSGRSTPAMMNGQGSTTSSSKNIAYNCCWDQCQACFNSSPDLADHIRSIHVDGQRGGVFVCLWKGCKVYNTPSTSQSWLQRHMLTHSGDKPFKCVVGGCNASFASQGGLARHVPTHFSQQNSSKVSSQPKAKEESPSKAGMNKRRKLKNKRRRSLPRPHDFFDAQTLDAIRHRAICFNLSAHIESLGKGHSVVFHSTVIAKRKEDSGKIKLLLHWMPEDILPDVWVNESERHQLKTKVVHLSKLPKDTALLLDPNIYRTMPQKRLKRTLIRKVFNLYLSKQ

SMILES	selectivity for EZH2 over EZH1 (EZH2) [fold]	inhibitory activity against EZH1, in words [1]	inhibitory activity against EZH2, in words [2]	further results
Cc1cc(C)c(CNC(=O)c2cc(-c3ccc(CN4CCOCC4)cc3)cc3c2cnn3C2CCCC2)c(=O)[nH]1 [Compound 1, EPZ005687]	50			
CC[C@H](C)n1cc(C)c2c(C(=O)NCc3c(C)cc(C)[nH]c3=O)cc(-c3ccc(N4CCNCC4)nc3)cc21 [Compound 2, GSK126]	150			
CCCc1cc(C)[nH]c(=O)c1CNC(=O)c1cc(-c2ccnc(N3CCN(C)CC3)c2)cc2c1cnn2C(C)C [Compound 3, GSK343]	60			
CCC(CC)n1ccc2c(C(=O)NCc3c(C)cc(C)[nH]c3=O)cc(C#N)cc21 [Compound 4, EI1]	140			
CCCc1cc(C)[nH]c(=O)c1CNC(=O)c1cc(-c2ccc(N3CCN(C(C)C)CC3)nc2)cc2c1cnn2C(C)C [Compound 5, UNC1999]				IC50 (EZH2; read-out: IC50 EZH2, previously reported): < 10 nM
COc1cc(C)[nH]c(=O)c1CNC(=O)c1c(C)n([C@H](C)C2CCOCC2)c2ccccc12 [Compound 8, CPI-360]	100			
CCN(c1cc(-c2ccc(N3CCN(C)CC3)nc2)cc(C(=O)NCc2c3c(c(C)[nH]c2=O)CCCC3)c1C)C1CCOCC1 [Compound 10, ZLD1039]	12			
CCCc1cc(C)[nH]c(=O)c1CNC(=O)c1cccn2c(-c3ccc(N4CCN(C(C)C)CC4)nc3)cnc12 [Compound 48, 3-(6-(4-Isopropylpiperazin-1-yl)pyridin-3-yl)-N-((6-methyl-2-oxo-4-propyl-1,2-dihydropyridin-3-yl)methyl)imidazo[1,2-a]pyridine-8-carboxamide]		did not display any inhibitory activity	did not display any inhibitory activity	
CCCc1cc(C)[nH]c(=O)c1CNC(=O)c1cnn2c(-c3ccc(N4CCN(C(C)C)CC4)nc3)cccc12 [Compound 49, 7-(6-(4-Isopropylpiperazin-1-yl)pyridin-3-yl)-N-((6-methyl-2-oxo-4-propyl-1,2-dihydropyridin-3-yl)methyl)pyrazolo[1,5-a]pyridine-3-carboxamide]		did not display any inhibitory activity	did not display any inhibitory activity	
CCCc1cc(C)[nH]c(=O)c1CNC(=O)c1cn2ccc(-c3ccc(N4CCN(C(C)C)CC4)nc3)cc2n1 [Compound 50, 7-(6-(4-Isopropylpiperazin-1-yl)pyridin-3-yl)-N-((6-methyl-2-oxo-4-propyl-1,2-dihydropyridin-3-yl)methyl)imidazo[1,2-a]pyridine-2-carboxamide]		inactive	inactive	
CCCc1cc(C)[nH]c(=O)c1CNC(=O)c1cc(-c2ccc(N3CCN(C(C)C)CC3)nc2)cc2c1cnn2C [Compound 55, 6-(6-(4-Isopropylpiperazin-1-yl)pyridin-3-yl)-1-methyl-N-((6-methyl-2-oxo-4-propyl-1,2-dihydropyridin-3-yl)methyl)-1H-inda-zole-4-carboxamide]		did not have appreciable inhibitory activity		fold loss of potency for EZH2 [2]: 10–20 fold
CCCc1cc(C)[nH]c(=O)c1CNC(=O)c1cc(-c2ccc(N3CCN(C(C)C)CC3)nc2)cc2c1cnn2C1CCCCCC1 [Compound 56, 1-Cycloheptyl-6-(6-(4-isopropylpiperazin-1-yl)pyridin-3-yl)-N-((6-methyl-2-oxo-4-propyl-1,2-dihydropyridin-3-yl)methyl)-1H-inda-zole-4-carboxamide]		did not have appreciable inhibitory activity		fold loss of potency for EZH2 [2]: 10–20 fold
CCCc1cc(C)[nH]c(=O)c1CNC(=O)c1cc(-c2ccc(N3CCN(CC)CC3)nc2)cc2c1cnn2C(C)C [Compound 64]		did not affect the potency	did not affect the potency	
CCCc1cc(C)[nH]c(=O)c1CNC(=O)c1cc(-c2ccc(N3CCNCC3)nc2)cc2c1cnn2C(C)C [Compound 65]		did not affect the potency	did not affect the potency	
